PubChem BioAssay AID1963426 (Molecular Pharmacology Branch, DTP, NCI, 2024)
pIC50: −log10 of the molar value. Blank lines part the entries; values can stand above or below the compound they belong to.

Test system: 186277-243-T-J2-PDC complex spheroid growth, % test/control
Assay: Anticancer human tumor 186277-243-T-J2-PDC patient-derived colon adenocarcinoma cell line growth inhibition [Asc]
Conditions: for pIC50: curve of first compound; for viability, T/C: stronger effect = lower value
Outline: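 Stromal components (HUVEC and hMSC) are co-assembled with the cancer cells into multicellular spheroids. Drugs are then added singly or paired, at concentrations falling by half-log increments from a clinically achievable maximum, capped at 10 microM without known Cmax.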

[1] = second compound 0.1 µM, first compound 0.0316 µM
[2] = second compound 0.1 µM, first compound 0.1 µM
[3] = second compound 0.1 µM, first compound 0.316 µM
[4] = second compound 0.1 µM, first compound 1 µM
[5] = second compound 0.1 µM, first compound 3.16 µM
[6] = second compound 0.1 µM, first compound 10 µM
[7] = second compound 0.316 µM, first compound 0.0316 µM
[8] = second compound 0.316 µM, first compound 0.1 µM
[9] = second compound 0.316 µM, first compound 0.316 µM
[10] = second compound 0.316 µM, first compound 1 µM
[11] = second compound 0.316 µM, first compound 3.16 µM
[12] = second compound 0.316 µM, first compound 10 µM
[13] = second compound 1 µM, first compound 0.0316 µM
[14] = second compound 1 µM, first compound 0.1 µM
[15] = second compound 1 µM, first compound 0.316 µM
[16] = second compound 1 µM, first compound 1 µM
[17] = second compound 1 µM, first compound 3.16 µM
[18] = second compound 1 µM, first compound 10 µM
[19] = second compound 3.16 µM, first compound 0.0316 µM
[20] = second compound 3.16 µM, first compound 0.1 µM
[21] = second compound 3.16 µM, first compound 0.316 µM
[22] = second compound 3.16 µM, first compound 1 µM
[23] = second compound 3.16 µM, first compound 3.16 µM
[24] = second compound 3.16 µM, first compound 10 µM
[25] = second compound 10 µM, first compound 0.0316 µM
[26] = second compound 10 µM, first compound 0.1 µM
[27] = second compound 10 µM, first compound 0.316 µM
[28] = second compound 10 µM, first compound 1 µM
[29] = second compound 10 µM, first compound 3.16 µM
[30] = second compound 10 µM, first compound 10 µM
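Note: spheroids exposed to agents for 7 days.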
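Throughout, for viability, T/C: 100% = DMSO vehicle control wells.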

- pIC50 (second compound 0.1 µM): 5.26
- pIC50 (second compound 0.316 µM): 5.36
- pIC50 (second compound 1 µM): 5.59
- pIC50 (second compound 3.16 µM): 5.66
- pIC50 (second compound 10 µM): 5.63
Structure (SMILES): C=C(F)C(=O)N1CCN(c2nc(OCC3CCCN3C)nc3c2CCN(c2cccc4cccc(Cl)c24)C3)CC1CC#N (stereo not given) + Cc1c(S(C)(=O)=O)c(-c2cc(F)cc(N3CCN(c4ccc(NS(=O)(=O)c5ccc(NC(CCN6CCC(C(=O)OCCCP(=O)(O)O)CC6)CSc6ccccc6)c(S(=O)(=O)C(F)(F)F)c5)cc4)CC3)c2)c(-c2ccc(Cl)cc2)n1C(C)C
- viability, T/C [1]: 109%
- viability, T/C [2]: 111%
- viability, T/C [3]: 110%
- viability, T/C [4]: 110%
- viability, T/C [5]: 97.2%
- viability, T/C [6]: 0.54%
- viability, T/C [7]: 106%
- viability, T/C [8]: 109%
- viability, T/C [9]: 108%
- viability, T/C [10]: 111%
- viability, T/C [11]: 70%
- viability, T/C [12]: 0.32%
- viability, T/C [13]: 115%
- viability, T/C [14]: 119%
- viability, T/C [15]: 107%
- viability, T/C [16]: 124%
- viability, T/C [17]: 36.1%
- viability, T/C [18]: 0.51%
- viability, T/C [19]: 105%
- viability, T/C [20]: 108%
- viability, T/C [21]: 112%
- viability, T/C [22]: 104%
- viability, T/C [23]: 24.2%
- viability, T/C [24]: 0.16%
- viability, T/C [25]: 120%
- viability, T/C [26]: 106%
- viability, T/C [27]: 116%
- viability, T/C [28]: 107%
- viability, T/C [29]: 31.2%
- viability, T/C [30]: 0.25%

- pIC50 (second compound 0.1 µM): < 5.00
- pIC50 (second compound 0.316 µM): < 5.00
- pIC50 (second compound 1 µM): < 5.00
- pIC50 (second compound 3.16 µM): < 5.00
- pIC50 (second compound 10 µM): < 5.00
Structure (SMILES): C=CC(=O)N1CCN(c2nc(=O)n(-c3c(C)ccnc3C(C)C)c3nc(-c4c(O)cccc4F)c(F)cc23)C(C)C1 (stereo not given) + Cc1c(S(C)(=O)=O)c(-c2cc(F)cc(N3CCN(c4ccc(NS(=O)(=O)c5ccc(NC(CCN6CCC(C(=O)OCCCP(=O)(O)O)CC6)CSc6ccccc6)c(S(=O)(=O)C(F)(F)F)c5)cc4)CC3)c2)c(-c2ccc(Cl)cc2)n1C(C)C
- viability, T/C [1]: 120%
- viability, T/C [2]: 105%
- viability, T/C [3]: 105%
- viability, T/C [4]: 108%
- viability, T/C [5]: 116%
- viability, T/C [6]: 113%
- viability, T/C [7]: 111%
- viability, T/C [8]: 104%
- viability, T/C [9]: 104%
- viability, T/C [10]: 104%
- viability, T/C [11]: 119%
- viability, T/C [12]: 116%
- viability, T/C [13]: 128%
- viability, T/C [14]: 115%
- viability, T/C [15]: 100%
- viability, T/C [16]: 116%
- viability, T/C [17]: 119%
- viability, T/C [18]: 119%
- viability, T/C [19]: 105%
- viability, T/C [20]: 123%
- viability, T/C [21]: 115%
- viability, T/C [22]: 111%
- viability, T/C [23]: 116%
- viability, T/C [24]: 116%
- viability, T/C [25]: 102%
- viability, T/C [26]: 109%
- viability, T/C [27]: 102%
- viability, T/C [28]: 119%
- viability, T/C [29]: 104%
- viability, T/C [30]: 110%

- pIC50 (second compound 0.1 µM): 6.13
- pIC50 (second compound 0.316 µM): 6.40
- pIC50 (second compound 1 µM): 6.69
- pIC50 (second compound 3.16 µM): 6.96
- pIC50 (second compound 10 µM): 7.01
Structure (SMILES): CCN1C(C(=O)NC23CCC(C(=O)O)(CC2)CC3)C(c2cccc(Cl)c2F)C2(C(=O)Nc3cc(Cl)ccc32)C12CCCCC2 (stereo not given) + Cc1c(S(C)(=O)=O)c(-c2cc(F)cc(N3CCN(c4ccc(NS(=O)(=O)c5ccc(NC(CCN6CCC(C(=O)OCCCP(=O)(O)O)CC6)CSc6ccccc6)c(S(=O)(=O)C(F)(F)F)c5)cc4)CC3)c2)c(-c2ccc(Cl)cc2)n1C(C)C
- viability, T/C (second compound 0.1 µM, first compound 0.00949 µM): 103%
- viability, T/C (second compound 0.1 µM, first compound 0.03 µM): 137%
- viability, T/C (second compound 0.1 µM, first compound 0.0949 µM): 91.4%
- viability, T/C (second compound 0.1 µM, first compound 0.3 µM): 73.6%
- viability, T/C (second compound 0.1 µM, first compound 0.949 µM): 47.5%
- viability, T/C (second compound 0.1 µM, first compound 3 µM): 14%
- viability, T/C (second compound 0.316 µM, first compound 0.00949 µM): 111%
- viability, T/C (second compound 0.316 µM, first compound 0.03 µM): 121%
- viability, T/C (second compound 0.316 µM, first compound 0.0949 µM): 82.6%
- viability, T/C (second compound 0.316 µM, first compound 0.3 µM): 59.3%
- viability, T/C (second compound 0.316 µM, first compound 0.949 µM): 26.1%
- viability, T/C (second compound 0.316 µM, first compound 3 µM): 1.1%
- viability, T/C (second compound 1 µM, first compound 0.00949 µM): 107%
- viability, T/C (second compound 1 µM, first compound 0.03 µM): 126%
- viability, T/C (second compound 1 µM, first compound 0.0949 µM): 72.7%
- viability, T/C (second compound 1 µM, first compound 0.3 µM): 38.3%
- viability, T/C (second compound 1 µM, first compound 0.949 µM): 8.6%
- viability, T/C (second compound 1 µM, first compound 3 µM): 1.06%
- viability, T/C (second compound 3.16 µM, first compound 0.00949 µM): 120%
- viability, T/C (second compound 3.16 µM, first compound 0.03 µM): 103%
- viability, T/C (second compound 3.16 µM, first compound 0.0949 µM): 52.5%
- viability, T/C (second compound 3.16 µM, first compound 0.3 µM): 19.8%
- viability, T/C (second compound 3.16 µM, first compound 0.949 µM): 2.56%
- viability, T/C (second compound 3.16 µM, first compound 3 µM): 0.36%
- viability, T/C (second compound 10 µM, first compound 0.00949 µM): 107%
- viability, T/C (second compound 10 µM, first compound 0.03 µM): 110%
- viability, T/C (second compound 10 µM, first compound 0.0949 µM): 49.7%
- viability, T/C (second compound 10 µM, first compound 0.3 µM): 13.4%
- viability, T/C (second compound 10 µM, first compound 0.949 µM): 3.44%
- viability, T/C (second compound 10 µM, first compound 3 µM): 0.38%

- pIC50 (second compound 0.1 µM): < 6.00
- pIC50 (second compound 0.316 µM): < 6.00
- pIC50 (second compound 1 µM): < 6.00
- pIC50 (second compound 3.16 µM): < 6.00
- pIC50 (second compound 10 µM): < 6.00
Structure (SMILES): CNC(C)C(=O)NC1CN(S(=O)(=O)c2cccc(S(=O)(=O)N3CCC4CCC(C(=O)NC(c5ccccc5)c5ccccc5)N4C(=O)C(NC(=O)C(C)NC)C3)c2)CCC2CCC(C(=O)NC(c3ccccc3)c3ccccc3)N2C1=O (stereo not given) + Cc1c(S(C)(=O)=O)c(-c2cc(F)cc(N3CCN(c4ccc(NS(=O)(=O)c5ccc(NC(CCN6CCC(C(=O)OCCCP(=O)(O)O)CC6)CSc6ccccc6)c(S(=O)(=O)C(F)(F)F)c5)cc4)CC3)c2)c(-c2ccc(Cl)cc2)n1C(C)C
- viability, T/C (second compound 0.1 µM, first compound 0.00316 µM): 99.7%
- viability, T/C (second compound 0.1 µM, first compound 0.01 µM): 108%
- viability, T/C [1]: 111%
- viability, T/C [2]: 106%
- viability, T/C [3]: 101%
- viability, T/C [4]: 110%
- viability, T/C (second compound 0.316 µM, first compound 0.00316 µM): 102%
- viability, T/C (second compound 0.316 µM, first compound 0.01 µM): 104%
- viability, T/C [7]: 102%
- viability, T/C [8]: 105%
- viability, T/C [9]: 108%
- viability, T/C [10]: 110%
- viability, T/C (second compound 1 µM, first compound 0.00316 µM): 123%
- viability, T/C (second compound 1 µM, first compound 0.01 µM): 114%
- viability, T/C [13]: 101%
- viability, T/C [14]: 110%
- viability, T/C [15]: 110%
- viability, T/C [16]: 99.5%
- viability, T/C (second compound 3.16 µM, first compound 0.00316 µM): 105%
- viability, T/C (second compound 3.16 µM, first compound 0.01 µM): 109%
- viability, T/C [19]: 93.6%
- viability, T/C [20]: 109%
- viability, T/C [21]: 110%
- viability, T/C [22]: 104%
- viability, T/C (second compound 10 µM, first compound 0.00316 µM): 93.6%
- viability, T/C (second compound 10 µM, first compound 0.01 µM): 103%
- viability, T/C [25]: 102%
- viability, T/C [26]: 109%
- viability, T/C [27]: 101%
- viability, T/C [28]: 107%
